The values below come from patent US20070099915A1, “INHIBITORS OF THE HIV INTEGRASE ENZYME” (PFIZER INC., priority 2005, published 2007).

Experiment [1] has as its target T1, Full-length wild type HIV-1 integrase (SF1) (Human immunodeficiency virus type 1 group M subtype B, UniProt P04585).
T1 construct: made in house; host or cells: E. coli BL21 (DE3)
The experiment in a line: Integrase strand-transfer scintillation proximity assay. The experiment is classed as biochemical. The conditions noted are these: strand-transfer SPA, 246 nM integrase, 50 nM host DNA, 37° C., 50 min; read-out: IC50. The text has this:
The annealed product represents preprocessed viral ds-DNA derived from the LTR U5 sequence of the viral genome. A ds-DNA control to test for non-specific interactions was made using a 3′ di-deoxy derivative of oligonucleotide #1 annealed to oligonucleotide #2. The CA overhang at the 5′ end of the non-biotinylated strand of the ds-DNA was created artificially by using a complimentary DNA oligonucleotide shortened by 2 base pairs. This configuration eliminates the requisite 3′ processing step of the integrase enzyme prior to the strand-transfer mechanism.
The annealed product had overhanging 3′ ends of poly(dA). […] The radiolabeled product was purified using a NENSORB cartridge and stored in stabilized aqueous solution (PerkinElmer).
Reagents: Streptavidin-coated polyvinyltoluene (PVT) SPA beads were purchased from Amersham Biosciences (Piscataway, N.J.). Cesium chloride was purchased from Shelton Scientific, Inc. (Shelton, Conn.). White, polystyrene, flat-bottom, non-binding surface, 96-well plates were purchased from Corning. All other buffer components were purchased from Sigma (St. Louis, Mo.) unless otherwise indicated.
Enzyme Construction: Full-length wild type HIV-1 integrase (SF1) sequence (amino acids 1-289) was constructed in a pET24a vector (Novagen, Madison, Wis.).
Enzyme Purification: Full length wild-type HIV Integrase was expressed in E. coli BL21 (DE3) cells and induced with 1 mM isopropyl-1 thio-β-D-galactopyranoside (IPTG) when cells reached an optical density between 0.8-1.0 at 600 nm. Cells were lysed by microfluidation in 50 mM HEPES pH 7.0, 75 mM NaCl, 5 mM DTT, 1 mM 4-(2-Aminoethyl)benzenesulfonylfluoride HCl (AEBSF). Lysate was then centrifuged 20 minutes at 11 k rpm in GSA rotor in Sorvall RC-5B at 4° C. Supernant was discarded and pellet resuspended in 50 mM HEPES pH 7.0, 750 mM NaCl, 5 mM DTT, 1 mM AEBSF and homogenized in a 40 mL Dounce homogenizer for 20 minutes on ice. Homogenate was then centrifuged 20 minutes at 11 k rpm in SS34 rotor in Sorvall RC-5B at 4° C. Supernant was discarded and pellet resuspended in 50 mM HEPES pH 7.0, 750 mM NaCl, 25 mM CHAPS, 5 mM DTT, 1 mM AEBSF. Preparation was then centrifuged 20 minutes at 11 k rpm in SS34 rotor in Sorvall RC-5B at 4° C.
Supernant was then diluted 1:1 with 50 mM HEPES pH 7.0, 25 mM CHAPS, 1 mM DTT, 1 mM AEBSF and loaded onto a Q-Sepharose column pre-equilibrated with 50 mM HEPES, pH 7.0, 375 mM NaCl, 25 mM CHAPS, 1 mM DTT, 1 mM AEBSF. The flow through peak was collected and NaCl diluted to 0.1 M with 50 mM HEPES pH 7.0, 25 mM CHAPS, 1 mM DTT, 0.5 mM AEBSF and loaded onto a SP-Sepharose column pre-equilibrated with 50 mM HEPES pH 7.0, 100 mM NaCl, 25 mM CHAPS, 1 mM DTT, 0.5 mM AEBSF. After washing the column with the equilibration buffer, a 100 to 400 mM NaCl gradient was run. The eluted integrase was concentrated and run on a S-300 gel diffusion column using 50 mM HEPES pH 7.0, 500 mM NaCl, 25 mM CHAPS, 1 mM DTT, 0.5 mM AEBSF. […] All columns were run in a 4° C. cold room.
Viral DNA Bead Preparation: Streptavidin-coated SPA beads were suspended to 20 mg/mL in 25 mM 3-morpholinopropanesulfonic acid (MOPS) (pH 7.2) and 1.0% NaN3. Biotinylated viral DNA was bound to the hydrated SPA beads in a batch process by combining […] of ds-DNA to 1 mg of suspended SPA beads (10 μL of 50 μM viral DNA to 1 mL of 20 mg/mL SPA beads). The mixture was incubated at 22° C. for a minimum of 20 min. with occasional mixing followed by centrifugation at 2500 rpm for 10 min.

Experiment [2] has as its system HIV-1 RF virus in CEM-SS cells. The experiment in a line: HIV-1 cell protection assay (XTT dye reduction). The experiment is classed as cell-based. As to the method:
Six days later, 50 μl of XTT solution (1 mg/ml XTT tetrazolium and 20 nM phenazine methosulfate) were added to the wells and the plates were reincubated for four hours. Viability, as determined by the amount of XTT formazan produced, was quantified spectrophotometrically by absorbance at 450 nm.
Data from CPE assays were expressed as the percent of formazan produced in compound-treated cells compared to formazan produced in wells of uninfected, compound-free cells. […] The 50% cytotoxicity concentration (CC50) was calculated as the concentration of compound that decreased the percentage of formazan produced in uninfected, compound-treated cells to 50% of that produced in uninfected, compound-free cells. The therapeutic index was calculated by dividing the cytotoxicity (CC50) by the antiviral activity (EC50).

Setting [3] is: Human immunodeficiency virus 1, 144 h, RF strain of HIV-1, CEM-SS cells, XTT read-out after six days, read-out: EC50.

Like-named read-outs stand apart in the source and are kept apart here.

Take `O=C1c2ncc3c(c(CNC4CCOCC4)cn3Cc3ccc(F)cc3)c2CCN1O` [Example 69, 3-(4-fluorobenzyl)-7-hydroxy-1-[(tetrahydro-2H-pyran-4-ylamino)methyl]-3,7,8,9-tetrahydro-6H-pyrrolo[2,3-c]-1,7-naphthyridin-6-one]: the IC50 (as a rule, the point on the concentration scale where inhibition reaches its midpoint) in experiment [1] worked out at 0.02 µM. Moreover, the EC50 (in general, the concentration needed to bring the measured effect to its halfway point) in experiment [2] (setting [3]) was found to be 0.027 µM.

Regarding `O=C1c2ncc3c(c(COCCOCc4ccccc4)cn3Cc3ccc(F)cc3)c2CCN1O` [Example 57, 1-{[2-(benzyloxy)ethoxy]methyl}-3-(4-fluorobenzyl)-7-hydroxy-3,7,8,9-tetrahydro-6H-pyrrolo[2,3-c]-1,7-naphthyridin-6-one], the IC50 in experiment [1] amounted to 0.012 µM. The EC50 in experiment [2] (setting [3]) was found to be 0.00069 µM.

With `CCCN(CCO)Cc1cn(Cc2ccc(F)cc2)c2cnc3c(=O)n(O)c(C)cc3c12` [Example 97, 3-(4-fluorobenzyl)-7-hydroxy-1-{[(2-hydroxyethyl)(propyl)amino]methyl}-8-methyl-3,7-dihydro-6H-pyrrolo[2,3-c]-1,7-naphthyridin-6-one], the IC50 in experiment [1] was found to be 0.017 µM. The EC50 in experiment [2] (setting [3]) came to 0.00069 µM.

`COc1cccc(CCOCc2cn(Cc3ccc(F)cc3)c3cnc4c(c23)CCN(O)C4=O)c1` [Example 66]: in experiment [1], the IC50 was 0.013 µM. In experiment [2] (setting [3]), the EC50 worked out at 0.001 µM.

`O=c1c2ncc3c(c(CO)cn3Cc3ccc(F)cc3)c2ccn1O` [Example 26, 3-(4-fluorobenzyl)-7-hydroxy-1-(hydroxymethyl)-3H-pyrrolo[2,3-c][1,7]naphthyridin-6(7H)-one]: the IC50 in experiment [1] was found to be 0.038 µM. For the same compound, in experiment [2] (setting [3]), the EC50 amounted to 0.003 µM.

As to `Cc1cccc(COCc2cn(Cc3ccc(F)cc3)c3cnc4c(c23)CCN(O)C4=O)n1` [Example 78, 3-(4-fluorobenzyl)-7-hydroxy-1-{[(6-methylpyridin-2-yl)methoxy]methyl}-3,7,8,9-tetrahydro-6H-pyrrolo[2,3-c]-1,7-naphthyridin-6-one], in experiment [1], the IC50 was 0.011 µM. In addition, in experiment [2] (setting [3]), the EC50 worked out at 0.0006 µM.

Take `Cc1cc2c(ncc3c2c(CN2CCOCC2)cn3Cc2ccc(F)cc2)c(=O)n1O` [Example 43, 3-(4-fluorobenzyl)-7-hydroxy-8-methyl-1-(morpholin-4-ylmethyl)-3,7-dihydro-6H-pyrrolo[2,3-c]-1,7-naphthyridin-6-one]: the IC50 in experiment [1] amounted to 0.00936 µM. Further, the EC50 in experiment [2] (setting [3]) came out at 0.00041 µM.

On to `C[C@H](CO)NCc1cn(Cc2ccc(F)cc2)c2cnc3c(c12)CCN(O)C3=O` [Example 33, 3-(4-fluorobenzyl)-7-hydroxy-1-({[(1R)-2-hydroxy-1-methylethyl]amino}methyl)-3,7,8,9-tetrahydro-6H-pyrrolo[2,3-c]-1,7-naphthyridin-6-one], for which the half-inhibitory concentration (IC50) in experiment [1] is 0.021 µM. In experiment [2] (setting [3]), the EC50 amounted to 0.013 µM.

As for `Cc1cc2c(ncc3c2c(CN2CCN(C)CC2)cn3Cc2ccc(F)cc2)c(=O)n1O` [Example 95, 3-(4-fluorobenzyl)-7-hydroxy-8-methyl-1-[(4-methylpiperazin-1-yl)methyl]3,7-dihydro-6H-pyrrolo[2,3-c]-1,7-naphthyridin-6-one], the IC50 in experiment [1] is 0.014 µM. The EC50 in experiment [2] (setting [3]) was determined as 0.00045 µM.

Turning to `CCCOCCOCc1cn(Cc2ccc(F)cc2)c2cnc3c(c12)CCN(O)C3=O` [Example 75, 3-(4-fluorobenzyl)-7-hydroxy-1-[(2-propoxyethoxy)methyl]-3,7,8,9-tetrahydro-6H-pyrrolo[2,3-c]-1,7-naphthyridin-6-one], the IC50 in experiment [1] turned out to be 0.017 µM. Further, the EC50 in experiment [2] (setting [3]) was 0.0007 µM.

On to `CN1CCN(C(=O)c2cn(Cc3ccc(F)cc3)c3cnc4c(c23)CCN(O)C4=O)CC1` [Example 17, 3-(4-fluorobenzyl)-7-hydroxy-1-[(4-methylpiperazin-1-yl)carbonyl]-3,7,8,9-tetrahydro-6H-pyrrolo[2,3-c]-1,7-naphthyridin-6-one], for which the IC50 in experiment [1] is 0.017 µM. The compound also gave an EC50 in experiment [2] (Human immunodeficiency virus 1, CEM-SS, 144 h) of 0.15 µM.

`CN(Cc1cn(Cc2ccc(F)cc2)c2cnc3c(c12)CCN(O)C3=O)CC(F)(F)F` [Example 73, 3-(4-fluorobenzyl)-7-hydroxy-1-{[methyl(2,2,2-trifluoroethyl)amino]methyl}-3,7,8,9-tetrahydro-6H-pyrrolo[2,3-c]-1,7-naphthyridin-6-one]: in experiment [1], the IC50 worked out at 0.007 µM. Moreover, in experiment [2] (setting [3]), the EC50 was 0.0004 µM.

As for `O=c1c2ncc3c(c(-c4ccccn4)cn3Cc3ccc(F)cc3)c2ccn1O` [Example 9, 3-(4-fluorobenzyl)-7-hydroxy-1-pyridin-2-yl-3,7-dihydro-6H-pyrrolo[2,3-c]-1,7-naphthyridin-6-one], in experiment [1], the IC50 came to 0.029 µM. Moreover, in experiment [2] (setting [3]), the EC50 was 0.002 µM.

Consider `CN1CCN(CCCc2cn(Cc3ccc(F)cc3)c3cnc4c(c23)CCN(O)C4=O)CC1=O` [Example 127, 3-(4-fluorobenzyl)-7-hydroxy-1-[3-(4-methyl-3-oxopiperazin-1-yl)propyl]-3,7,8,9-tetrahydro-6H-pyrrolo[2,3-c]-1,7-naphthyridin-6-one], for which the IC50 in experiment [1] was found to be 0.014 µM. The EC50 in experiment [2] (setting [3]) was found to be 0.04 µM.

`CC(C)COCCOCc1cn(Cc2ccc(F)cc2)c2cnc3c(c12)CCN(O)C3=O` [Example 58, 3-(4-fluorobenzyl)-7-hydroxy-1-[(2-isobutoxyethoxy)methyl]-3,7,8,9-tetrahydro-6H-pyrrolo[2,3-c]-1,7-naphthyridin-6-one]: the IC50 in experiment [1] is 0.016 µM. Also, the concentration giving a half-maximal response (EC50) in experiment [2] (setting [3]) was 0.00052 µM.

On to `CC(=O)CCCOCc1cn(Cc2ccc(F)cc2)c2cnc3c(c12)CCN(O)C3=O` [Example 63, 3-(4-fluorobenzyl)-7-hydroxy-1-{[(4-oxopentyl)oxy]methyl}-3,7,8,9-tetrahydro-6H-pyrrolo[2,3-c]-1,7-naphthyridin-6-one], for which the IC50 in experiment [1] turned out to be 0.01 µM. In addition, the EC50 in experiment [2] (setting [3]) amounted to 0.003 µM.

Consider `COCCN(C)Cc1cn(Cc2ccc(F)cc2)c2cnc3c(=O)n(O)c(C)cc3c12` [Example 102, 3-(4-fluorobenzyl)-7-hydroxy-1-{[(2-methoxyethyl)(methyl)amino]methyl}-8-methyl-3,7-dihydro-6H-pyrrolo[2,3-c]-1,7-naphthyridin-6-one], for which the IC50 in experiment [1] stood at 0.013 µM. Also, the EC50 in experiment [2] (setting [3]) came to 0.00025 µM.

As to `CC(=O)C1CCN(Cc2cn(Cc3ccc(F)cc3)c3cnc4c(c23)CCN(O)C4=O)CC1` [Example 99, 1-[(4-acetylpiperidin-1-yl)methyl]-3-(4-fluorobenzyl)-7-hydroxy-3,7,8,9-tetrahydro-6H-pyrrolo[2,3-c]-1,7-naphthyridin-6-one], the 50% inhibitory concentration (IC50) in experiment [1] was 0.022 µM. For the same compound, the EC50 in experiment [2] (setting [3]) was 0.005 µM.

Turning to `Cc1cc2c(ncc3c2c(CN(C)C)cn3Cc2ccc(F)cc2)c(=O)n1O` [Example 42, 1-[(dimethylamino)methyl]-3-(4-fluorobenzyl)-7-hydroxy-8-methyl-3,7-dihydro-6H-pyrrolo[2,3-c]-1,7-naphthyridin-6-one], in experiment [1], the IC50 is 0.0081 µM. Besides, in experiment [2] (setting [3]), the EC50 is 0.00043 µM.
